Source: patent publication US20180250280A1 (BAYER PHARMA AKTIENGESELLSCHAFT, priority 2015, published 2018)

How the values were obtained:
human plasma kallikrein = target: T1, human plasma kallikrein (Homo sapiens, UniProt P03952); assay: Determination of the plasma kallikrein activity (fluorogenic peptide substrate, AMC cleavage); type: biochemical; details: plasma kallikrein from Kordia 0.6 nM; substrate H-Pro-Phe-Arg-AMC 10 μM; 30 min at 22° C.; in some cases averages from multiple determinations
T1 construct: purchased Kordia
T1 sequence (P03952 391-638 limits assumed): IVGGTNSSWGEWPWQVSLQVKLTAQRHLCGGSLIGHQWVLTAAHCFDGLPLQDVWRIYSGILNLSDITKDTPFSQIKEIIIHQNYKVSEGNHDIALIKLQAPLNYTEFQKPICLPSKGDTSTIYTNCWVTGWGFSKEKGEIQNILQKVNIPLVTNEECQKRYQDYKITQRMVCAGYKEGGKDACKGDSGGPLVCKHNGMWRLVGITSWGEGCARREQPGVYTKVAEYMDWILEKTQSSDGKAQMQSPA
T1 sequence (P03952 20-390 partner limits assumed): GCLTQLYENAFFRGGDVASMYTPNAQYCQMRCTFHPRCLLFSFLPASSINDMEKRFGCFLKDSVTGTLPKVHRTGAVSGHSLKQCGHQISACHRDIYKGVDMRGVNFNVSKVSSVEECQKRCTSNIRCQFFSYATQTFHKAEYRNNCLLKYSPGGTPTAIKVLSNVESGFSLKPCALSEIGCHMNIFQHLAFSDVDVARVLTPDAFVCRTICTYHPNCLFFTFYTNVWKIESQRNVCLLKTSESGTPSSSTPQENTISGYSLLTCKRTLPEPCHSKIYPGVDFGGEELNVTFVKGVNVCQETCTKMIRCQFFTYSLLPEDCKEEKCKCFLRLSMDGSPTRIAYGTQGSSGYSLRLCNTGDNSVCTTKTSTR
Procedure, shortened: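 Kallikrein cleavage of H-Pro-Phe-Arg-AMC was followed by AMC fluorescence (ex 360, em 460) after 15 min enzyme–compound preincubation. IC50 was derived versus DMSO controls over final concentrations of 50 μM to 0.00013 μM.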

human factor XIa = target: T2, human factor XIa (Homo sapiens, UniProt P03951); assay: Measurement of FXIa inhibition (fluorogenic peptide substrate, AMC cleavage); type: biochemical; details: factor XIa from Kordia 0.45 nM; substrate Boc-Glu(OBzl)-Ala-Arg-AMC 10 μM; 30 min at 22° C.; in some cases averages from multiple determinations
T2 construct: purchased Kordia
T2 sequence (P03951 388-625 limits assumed): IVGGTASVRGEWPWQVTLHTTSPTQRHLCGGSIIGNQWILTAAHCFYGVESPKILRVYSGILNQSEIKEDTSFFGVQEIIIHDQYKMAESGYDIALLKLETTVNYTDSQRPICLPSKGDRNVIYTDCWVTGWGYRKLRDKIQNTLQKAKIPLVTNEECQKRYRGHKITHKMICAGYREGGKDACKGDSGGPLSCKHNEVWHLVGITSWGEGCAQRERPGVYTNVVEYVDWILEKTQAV
T2 sequence (P03951 19-387 partner limits assumed): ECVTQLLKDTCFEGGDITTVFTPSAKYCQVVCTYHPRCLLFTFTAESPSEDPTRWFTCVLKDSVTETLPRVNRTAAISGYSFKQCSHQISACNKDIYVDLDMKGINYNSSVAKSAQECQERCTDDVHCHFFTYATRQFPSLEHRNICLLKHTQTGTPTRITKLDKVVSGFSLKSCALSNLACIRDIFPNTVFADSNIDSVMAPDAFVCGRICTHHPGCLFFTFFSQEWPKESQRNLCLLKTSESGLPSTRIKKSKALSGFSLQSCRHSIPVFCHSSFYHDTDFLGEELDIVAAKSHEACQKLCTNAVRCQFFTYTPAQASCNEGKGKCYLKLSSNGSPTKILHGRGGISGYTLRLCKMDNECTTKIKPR

IC50 (human plasma kallikrein) [nM] | IC50 (human factor XIa) [nM] | Structure (SMILES)
19 | 0.41 | COc1cn([C@@H](C[C@@H]2CCCCO2)C(=O)Nc2ccc(C(=O)O)cc2)c(=O)cc1-c1cc(Cl)ccc1OCC(F)(F)F (single isomer, unassigned) [Example 78]
47 | 0.82 | COc1cn(C(CC2COCCO2)C(=O)Nc2ccc(C(=O)O)cc2)c(=O)cc1-c1cc(Cl)ccc1OCC(F)(F)F (stereo not drawn) [Example 17, 4-{[2-{4-[5-Chloro-2-(2,2,2-trifluoroethoxy)phenyl]-5-methoxy-2-oxopyridin-1(2H)-yl}-3-(1,4-dioxan-2-yl)propanoyl]amino}benzoic acid]
55 | 3.2 | COc1cn(C(CC2COCCO2)C(=O)Nc2ccc(C(N)=O)nc2)c(=O)cc1-c1cc(Cl)ccc1OCC(F)(F)F (stereo not drawn) [Example 18, 5-{[2-{4-[5-Chloro-2-(2,2,2-trifluoroethoxy)phenyl]-5-methoxy-2-oxopyridin-1(2H)-yl}-3-(1,4-dioxan-2-yl)propanoyl]amino}pyridine-2-carboxamide]
38 | 3.4 | CNC(=O)c1ccc(NC(=O)C(CC2COCCO2)n2cc(OC)c(-c3cc(Cl)ccc3OCC(F)(F)F)cc2=O)cn1 (stereo not drawn) [Example 19, 5-{[2-{4-[5-Chloro-2-(2,2,2-trifluoroethoxy)phenyl]-5-methoxy-2-oxopyridin-1(2H)-yl}-3-(1,4-dioxan-2-yl)propanoyl]amino}-N-methylpyridine-2-carboxamide]
120 | 2.5 | COc1cn(C(C[C@H]2CCCCO2)C(=O)Nc2ccc(C(=O)O)cc2)c(=O)cc1-c1cc(Cl)ccc1OCC(F)(F)F (stereo partly drawn) [Example 20, 4-[(2-{4-[5-Chloro-2-(2,2,2-trifluoroethoxy)phenyl]-5-methoxy-2-oxopyridin-1(2H)-yl}-3-[(2R)-tetrahydro-2H-pyran-2-yl]propanoyl)amino]benzoic acid]
150 | 16 | COc1cn(C(C[C@H]2CCCCO2)C(=O)Nc2ccc3nn(C)cc3c2)c(=O)cc1-c1cc(Cl)ccc1OCC(F)(F)F (stereo partly drawn) [Example 21, 2-{4-[5-Chloro-2-(2,2,2-trifluoroethoxy)phenyl]-5-methoxy-2-oxopyridin-1(2H)-yl}-N-(2-methyl-2H-indazol-5-yl)-3-[(2R)-tetrahydro-2H-pyran-2-yl]propanamide]
170 | 18 | CNC(=O)c1ccc(NC(=O)C(C[C@H]2CCCCO2)n2cc(OC)c(-c3cc(Cl)ccc3OCC(F)(F)F)cc2=O)cn1 (stereo partly drawn) [Example 22, 5-[(2-{4-[5-Chloro-2-(2,2,2-trifluoroethoxy)phenyl]-5-methoxy-2-oxopyridin-1(2H)-yl}-3-[(2R)-tetrahydro-2H-pyran-2-yl]propanoyl)amino]-N-methylpyridine-2-carboxamide]
340 | 34 | COc1cn(C(C[C@H]2CCCCO2)C(=O)Nc2ccc(C(N)=O)c(F)c2)c(=O)cc1-c1cc(Cl)ccc1OCC(F)(F)F (stereo partly drawn) [Example 23, 4-[(2-{4-[5-Chloro-2-(2,2,2-trifluoroethoxy)phenyl]-5-methoxy-2-oxopyridin-1(2H)-yl}-3-[(2R)-tetrahydro-2H-pyran-2-yl]propanoyl)amino]-2-fluorobenzamide]
80 | 1.6 | COc1cn(C(CC2COCCO2)C(=O)Nc2ccc(C(=O)O)cc2)c(=O)cc1-c1cc(Cl)ccc1OCC(F)F (stereo not drawn) [Example 29, 4-{[2-{4-[5-Chloro-2-(2,2-difluoroethoxy)phenyl]-5-methoxy-2-oxopyridin-1(2H)-yl}-3-(1,4-dioxan-2-yl)propanoyl]amino}benzoic acid]
74 | 4.7 | COc1cn(C(CC2COCCO2)C(=O)Nc2ccc(C(N)=O)nc2)c(=O)cc1-c1cc(Cl)ccc1OCC(F)F (stereo not drawn) [Example 30, 5-{[2-{4-[5-Chloro-2-(2,2-difluoroethoxy)phenyl]-5-methoxy-2-oxopyridin-1(2H)-yl}-3-(1,4-dioxan-2-yl)propanoyl]amino}pyridine-2-carboxamide]
120 | 7.1 | CNC(=O)c1ccc(NC(=O)C(CC2COCCO2)n2cc(OC)c(-c3cc(Cl)ccc3OCC(F)F)cc2=O)cn1 (stereo not drawn) [Example 31, 5-{[2-{4-[5-Chloro-2-(2,2-difluoroethoxy)phenyl]-5-methoxy-2-oxopyridin-1(2H)-yl}-3-(1,4-dioxan-2-yl)propanoyl]amino}-N-methylpyridine-2-carboxamide]
160 | 9.7 | COc1cn(C(CC2COCCO2)C(=O)Nc2ccc(C(N)=O)c(F)c2)c(=O)cc1-c1cc(Cl)ccc1OCC(F)F (stereo not drawn) [Example 32, 4-{[2-{4-[5-Chloro-2-(2,2-difluoroethoxy)phenyl]-5-methoxy-2-oxopyridin-1(2H)-yl}-3-(1,4-dioxan-2-yl)propanoyl]amino}-2-fluorobenzamide]
66 | 5.8 | COc1cn(C(CC2COCCO2)C(=O)Nc2ccc3nn(C)cc3c2)c(=O)cc1-c1cc(Cl)ccc1OCC(F)F (stereo not drawn) [Example 33, 2-{4-[5-Chloro-2-(2,2-difluoroethoxy)phenyl]-5-methoxy-2-oxopyridin-1(2H)-yl}-3-(1,4-dioxan-2-yl)-N-(2-methyl-2H-indazol-5-yl)propanamide]
320 | 3 | COc1cn(C(CC2COCCO2)C(=O)Nc2ccc(C(=O)O)cc2)c(=O)cc1-c1cc(Cl)ccc1OCCF (stereo not drawn) [Example 44, 4-{[2-{4-[5-Chloro-2-(2-fluoroethoxy)phenyl]-5-methoxy-2-oxopyridin-1(2H)-yl}-3-(1,4-dioxan-2-yl)propanoyl]amino}benzoic acid]
280 | 14 | COc1cn(C(CC2COCCO2)C(=O)Nc2ccc(C(N)=O)nc2)c(=O)cc1-c1cc(Cl)ccc1OCCF (stereo not drawn) [Example 45, 5-{[2-{4-[5-Chloro-2-(2-fluoroethoxy)phenyl]-5-methoxy-2-oxopyridin-1(2H)-yl}-3-(1,4-dioxan-2-yl)propanoyl]amino}pyridine-2-carboxamide]
150 | 8.9 | CNC(=O)c1ccc(NC(=O)C(CC2COCCO2)n2cc(OC)c(-c3cc(Cl)ccc3OCCF)cc2=O)cn1 (stereo not drawn) [Example 46, 5-{[2-{4-[5-Chloro-2-(2-fluoroethoxy)phenyl]-5-methoxy-2-oxopyridin-1(2H)-yl}-3-(1,4-dioxan-2-yl)propanoyl]amino}-N-methylpyridine-2-carboxamide]
310 | 29 | COc1cn(C(CC2COCCO2)C(=O)Nc2ccc(C(N)=O)c(F)c2)c(=O)cc1-c1cc(Cl)ccc1OCCF (stereo not drawn) [Example 47, 4-{[2-{4-[5-Chloro-2-(2-fluoroethoxy)phenyl]-5-methoxy-2-oxopyridin-1(2H)-yl}-3-(1,4-dioxan-2-yl)propanoyl]amino}-2-fluorobenzamide]
150 | 15 | COc1cn(C(CC2COCCO2)C(=O)Nc2ccc3nn(C)cc3c2)c(=O)cc1-c1cc(Cl)ccc1OCCF (stereo not drawn) [Example 48, 2-{4-[5-Chloro-2-(2-fluoroethoxy)phenyl]-5-methoxy-2-oxopyridin-1(2H)-yl}-3-(1,4-dioxan-2-yl)-N-(2-methyl-2H-indazol-5-yl)propanamide]
33 | 0.9 | COc1cn(C(C[C@@H]2CCCCO2)C(=O)Nc2ccc(C(=O)O)cc2)c(=O)cc1-c1cc(Cl)ccc1OCC(F)(F)F (stereo partly drawn) [Example 49, 4-[(2-{4-[5-Chloro-2-(2,2,2-trifluoroethoxy)phenyl]-5-methoxy-2-oxopyridin-1(2H)-yl}-3-[(2S)-tetrahydro-2H-pyran-2-yl]propanoyl)amino]benzoic acid]
65 | 6 | COc1cn(C(C[C@@H]2CCCCO2)C(=O)Nc2ccc3nn(C)cc3c2)c(=O)cc1-c1cc(Cl)ccc1OCC(F)(F)F (stereo partly drawn) [Example 51, 2-{4-[5-Chloro-2-(2,2,2-trifluoroethoxy)phenyl]-5-methoxy-2-oxopyridin-1(2H)-yl}-N-(2-methyl-2H-indazol-5-yl)-3-[(2S)-tetrahydro-2H-pyran-2-yl]propanamide]
82 | 5.1 | CNC(=O)c1ccc(NC(=O)C(C[C@@H]2CCCCO2)n2cc(OC)c(-c3cc(Cl)ccc3OCC(F)(F)F)cc2=O)cn1 (stereo partly drawn) [Example 52, 5-[(2-{4-[5-Chloro-2-(2,2,2-trifluoroethoxy)phenyl]-5-methoxy-2-oxopyridin-1(2H)-yl}-3-[(2S)-tetrahydro-2H-pyran-2-yl]propanoyl)amino]-N-methylpyridine-2-carboxamide]

Structure (SMILES) | IC50 (human plasma kallikrein) [nM] | IC50 (human factor XIa) [nM]
COc1cn([C@@H](CCOC(C)(C)C)C(=O)Nc2ccc(C(=O)O)s2)c(=O)cc1-c1cc(Cl)ccc1OCC(F)(F)F (single isomer, unassigned) [Example 69, 5-{[4-tert-Butoxy-2-{4-[5-chloro-2-(2,2,2-trifluoroethoxy)phenyl]-5-methoxy-2-oxopyridin-1(2H)-yl}butanoyl]amino}thiophene-2-carboxylic acid] | 8.9 | 0.88
COc1cc(NC(=O)[C@H](CCOC(C)(C)C)n2cc(OC)c(-c3cc(Cl)ccc3OCC(F)(F)F)cc2=O)ccc1C(=O)O (single isomer, unassigned) [Example 70, 4-{[4-tert-Butoxy-2-{4-[5-chloro-2-(2,2,2-trifluoroethoxy)phenyl]-5-methoxy-2-oxopyridin-1(2H)-yl}butanoyl]amino}-2-methoxybenzoic acid] | 58 | 1.3
COc1cn([C@@H](CCOC(C)(C)C)C(=O)Nc2ccc3nc(C(=O)O)cn3c2)c(=O)cc1-c1cc(Cl)ccc1OCC(F)(F)F (single isomer, unassigned) [Example 71, 6-{[4-tert-Butoxy-2-{4-[5-chloro-2-(2,2,2-trifluoroethoxy)phenyl]-5-methoxy-2-oxopyridin-1(2H)-yl}butanoyl]amino}imidazo[1,2-a]pyridine-2-carboxylic acid] | 10 | 0.93
